The source of these data is patent EP4813463A2, “TYK2 INHIBITORS AND COMPOSITIONS AND METHODS THEREOF” (Lynk Pharmaceuticals Co. Ltd., priority 2023, dated 2024).

One series concerns the target T1, JAK1-JH2 domain (Homo sapiens, UniProt P23458).
T1 construct: JAK1-JH2 domain or TYK2-JH2 domain enzyme in assay buffer
Briefly: Binding activity test for JH2 domain of JAK1 (Tb-antibody/tracer FRET). Particulars: JH2 domain enzyme; 60 min at 25°C, then 4°C overnight; read-out: JAK1 JH2 Binding IC50. The method, boiled down: (§1)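 IC50 values (nM) come from TR-FRET readings taken after a 25°C incubation followed by overnight at 4°C. Each well held JH2 domain protein, Tb-antibody, tracer and test compound titrated in 11 threefold steps, with DMSO high and low controls.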

The target in a further series is T2, TYK2-JH2 domain (Homo sapiens, UniProt P29597).
T2 construct: JAK1-JH2 domain or TYK2-JH2 domain enzyme in assay buffer
T2 sequence (P29597 589-875 limits assumed): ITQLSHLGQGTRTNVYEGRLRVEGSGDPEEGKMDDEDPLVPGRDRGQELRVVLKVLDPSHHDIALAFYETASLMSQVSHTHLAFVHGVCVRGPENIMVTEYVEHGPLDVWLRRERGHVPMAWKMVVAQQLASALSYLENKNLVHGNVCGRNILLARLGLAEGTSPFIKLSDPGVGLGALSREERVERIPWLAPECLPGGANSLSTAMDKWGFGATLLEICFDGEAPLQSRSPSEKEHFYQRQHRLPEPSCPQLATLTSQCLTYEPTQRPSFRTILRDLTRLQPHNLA
Briefly: Binding activity test for JH2 domain of TYK2 (Tb-antibody/tracer FRET). The method, boiled down: as §1

For series [1], the system named is Ba/F3-FL-TYK2-P760L cells. The experiment in a line: Anti-proliferative assay in engineered Ba/F3 cells (Cell-Titer Glo, 72 h). It counts as cell-based. Particulars: Mus musculus, BaF3, 72 h, 72 h compound treatment, concentration that causes 50% growth inhibition, read-out: Baf3-FL-T2P760L. The method, boiled down:
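IC50 from luminescent ATP viability after 72 h compound exposure (37 °C, 5% CO2), % inhibition normalised to DMSO-treated cells minus medium blank. IL-3-free Ba/F3-FL-TYK2-P760L (Tel-JAK fusion) cells in 10% FBS RPMI-1640 received 9 three-fold doses, top 20 µM, 0.1% DMSO.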

A further series addresses T3, JAK2 (Homo sapiens, UniProt O60674).
T3 construct: purchased Carna Biosciences
The experiment in a line: JAK2 kinase activity, microfluidic assay (Caliper EZ Reader II, FAM labeled peptide substrate). It counts as biochemical. Particulars: JAK2 1.5 nM, 1 mM ATP. On the procedure: Testing for JAK1, JAK2 and TYK2 Kinase Activities
JAK activity was determined in the reaction buffer 50 mM HEPES, 0.01% Brij35, 10 mM MgCl2, 2 mM DTT by a microfluidic assay. The phosphorylation of a FAM labeled peptide substrate was monitored in the Caliper EZ Reader II (Perkin Elmer). The assay condition for each batch of enzyme (Carna Biosciences) was optimized to obtain 10% conversion rate of peptide substrate.
The test compounds were dissolved in DMSO to a stock concentration of 10 mM. Three-fold serially diluted compounds with top concentration of 5 µM were pre-incubated with JAK1, JAK2 or TYK2 for 10 min at ambient temperature. The final DMSO concentration of assay mixture was 1%. […] The reaction was stopped by adding 50 mM EDTA.
And the well without compound but with equivalent DMSO was defined as no inhibition. The percent inhibition was calculated by the following formula: % Inhibition = (Conversion%_max−Conversion%_sample)/(Conversion%_max−Conversion%_min) × 100 [formula] wherein • Conversion%_ max = the conversion rate in the positive well without addition of compound • Conversion%_ sample = the conversion rate of test compounds • Conversion%_ min = the conversion rate in the well without addition of enzyme
The dose-response (percent inhibition) curve was plotted and IC50 values were determined by GraphPad software. The IC50 values of tested compounds were list in Table 3. Table 3. JAK1, JAK2 and TYK2 IC50 Values of Illustrative Compounds

For the next series, the system named is pSTAT1. The experiment in a line: Phosphorylation inhibition of STAT in human whole blood (IFN-alpha stimulated, flow cytometry). Particulars: T-cell, 20 min, IFN-alpha stimulation 20 mins, CD3 T cells, read-out: pSTAT1 inhibition in hWB (IC50). It counts as cell-based. The method, boiled down:
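Fresh human whole blood stimulated 20 min with human universal type I IFN-alpha, then fixed, permeabilised and stained for CD3 and pSTAT1 (Y701). pSTAT1 in T cells read by flow cytometry; IC50 from 4-parameter logistic fit.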

Another series in a line: Kinetic solubility. The format is physicochemical. The settings on record: phosphate buffer, pH 7.4, aqueous buffer, kinetic from dmso stock, 100 mM pH 7.4 phosphate buffer, 1% DMSO, room temperature, read-out: Kinetics Solubility_PBS7.4. The method, boiled down:
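Compounds diluted from 10 mM/5 mM DMSO stocks into 100 mM phosphate buffer pH 7.4 (1% DMSO final), shaken 2 h at room temperature, then centrifuged. Dissolved compound in supernatant quantified by LC-MS/MS against a standard curve.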

Structures are written as SMILES. pIC50: −log10 of the molar value. ≈ marks a conversion by molar mass, not a printed value. A value given as a limit tells only on which side of the number the result lay.

T3 sequence (O60674 849-1124 limits assumed): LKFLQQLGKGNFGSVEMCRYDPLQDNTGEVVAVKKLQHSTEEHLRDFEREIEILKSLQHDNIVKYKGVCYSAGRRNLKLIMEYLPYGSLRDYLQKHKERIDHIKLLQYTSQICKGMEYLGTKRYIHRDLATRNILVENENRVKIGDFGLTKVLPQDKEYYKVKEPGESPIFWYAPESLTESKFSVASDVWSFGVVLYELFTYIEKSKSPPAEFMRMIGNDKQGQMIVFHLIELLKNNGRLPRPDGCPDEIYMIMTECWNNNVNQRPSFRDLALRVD
T1 sequence (P23458 583-855 limits assumed): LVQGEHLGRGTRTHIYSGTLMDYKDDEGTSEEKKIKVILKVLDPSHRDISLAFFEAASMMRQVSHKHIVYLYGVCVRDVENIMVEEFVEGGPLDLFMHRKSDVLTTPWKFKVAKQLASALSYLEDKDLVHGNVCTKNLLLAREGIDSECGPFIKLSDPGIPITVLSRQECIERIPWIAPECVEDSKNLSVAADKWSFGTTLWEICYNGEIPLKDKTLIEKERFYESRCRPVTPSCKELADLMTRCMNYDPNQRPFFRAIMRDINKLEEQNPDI

On to `[2H]C([2H])([2H])NC(=O)c1cnc(NC(=O)C2CC2)cc1Nc1nn(C)c2ccc([C@H](OC([2H])([2H])[2H])C(F)(F)F)c(OC)c12` [Example 55A, (S)-6-(cyclopropanecarboxamido)-4-((4-methoxy-1-methyl-5-(2,2,2-trifluoro-1-(methoxy-d3)ethyl)-1H-indazol-3-yl)amino)-N-(methyl-d3)nicotinamide], for which the pIC50 is 8.59 at JAK1-JH2 domain; 10.28 at TYK2-JH2 domain (JH2 domain enzyme, 60 min at 25°C, then 4°C overnight, read-out: TYK2 JH2 Binding IC50); 9.45 in series [1]; less than 5.00 at JAK2; 7.60 with pSTAT1. The JAK1/TYK2 selectivity at TYK2-JH2 domain (ratio of JAK1 JH2 to TYK2 JH2 binding IC50) was found to be 48.9. The solubility kinetic at 2 h in the series “Kinetic solubility” worked out at 7.78 µM (≈ 3.99 µg/mL).
